Data from US10934310B2, “Inhibitors of Bruton's tyrosine kinase and method of their use” (JANSSEN PHARMACEUTICA NV, priority 2015, dated 2021).

These compounds were tested against unphosphorylated-BTK kinase domain (UP-BTK), GST-tagged human BTK (389-659aa) (Homo sapiens (Human), UniProt Q06187) (assay: BTK Kinase Lanthascreen Binding Assay). Settings: Lanthascreen binding, 60 minutes incubation; pIC50 = negative log of the IC50 in molar.
Procedure: BTK Kinase Lanthascreen Binding Assay:
A BTK kinase lanthascreen binding assay monitors compound binding to unphosphorylated-BTK kinase domain (UP-BTK), by competing with a fluorescent labeled tracer. […] Data were analyzed using Xlfit™ version 5.3 from ID Business Solutions (Guildford), Microsoft Excel add-in. pIC50 refers to the negative log of the IC50 in molar.

Chain of unphosphorylated-BTK kinase domain (UP-BTK), GST-tagged human BTK (389-659aa) (Q06187 389-659): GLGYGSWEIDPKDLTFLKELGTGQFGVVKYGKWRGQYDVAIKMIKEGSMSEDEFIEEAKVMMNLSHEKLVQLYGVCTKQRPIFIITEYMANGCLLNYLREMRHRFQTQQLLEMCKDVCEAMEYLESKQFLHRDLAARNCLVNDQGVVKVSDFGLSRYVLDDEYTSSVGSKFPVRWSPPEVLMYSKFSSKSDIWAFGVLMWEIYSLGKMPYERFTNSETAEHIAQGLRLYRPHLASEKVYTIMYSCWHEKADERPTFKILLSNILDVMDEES

Structure (SMILES) | BTK_I_binding pIC50
C=CC(=O)N[C@H]1CCCC[C@H]1NC(=O)c1sc2nccc3c2c1NC(=O)N3c1ccc(Oc2ccccc2)cn1 [Example 291, N-((1R,2S)-2-Acrylamidocyclohexyl)-4-oxo-5-(5-phenoxypyridin-2-yl)-4,5-dihydro-3H-1-thia-3,5,8-triazaacenaphthylene-2-carboxamide] | 8.60
C=CC(=O)N[C@H]1CCCC[C@H]1NC(=O)c1sc2nccc3c2c1NC(=O)N3c1cnc(Oc2ccccc2)cn1 [Example 295, N-((1R,2S)-2-Acrylamidocyclohexyl)-4-oxo-5-(5-phenoxypyrazin-2-yl)-4,5-dihydro-3H-1-thia-3,5,8-triazaacenaphthylene-2-carboxamide] | 8.39
C=CC(=O)N[C@H]1CCC[C@H]1NC(=O)c1sc2nccc3c2c1NC(=O)N3c1ncc(Oc2ccccc2)cn1 [Example 296, N-((1R,2S)-2-acrylamidocyclopentyl)-4-oxo-5-(5-phenoxypyrimidin-2-yl)-4,5-dihydro-3H-1-thia-3,5,8-triazaacenaphthylene-2-carboxamide] | 8.39
C=CC(=O)N[C@H]1CCCC[C@H]1NC(=O)c1sc2nccc3c2c1NC(=O)N3c1ncc(Oc2ccccc2)cn1 [Example 297, N-((1R,2S)-2-Acrylamidocyclohexyl)-4-oxo-5-(5-phenoxypyrimidin-2-yl)-4,5-dihydro-3H-1-thia-3,5,8-triazaacenaphthylene-2-carboxamide] | 8.53
C=CC(=O)N[C@H]1CCC[C@H]1NC(=O)c1sc2nccc3c2c1NC(=O)N3c1cnc(CC(C)C)cc1C [Example 298, N-((1R,2S)-2-Acrylamidocyclopentyl)-5-(S)-(6-isobutyl-4-methylpyridin-3-yl)-4-oxo-4,5-dihydro-3H-1-thia-3,5,8-triazaacenaphthylene-2-carboxamide] | 8.09
C=CC(=O)N[C@H]1CCCC[C@H]1NC(=O)c1sc2nccc3c2c1NC(=O)N3c1cnc(Oc2ccccc2)nc1 [Example 302, N-((1R,2S)-2-Acrylamidocyclohexyl)-4-oxo-5-(2-phenoxypyrimidin-5-yl)-4,5-dihydro-3H-1-thia-3,5,8-triazaacenaphthylene-2-carboxamide] | 8.23
C=CC(=O)N[C@H]1CCC[C@H]1NC(=O)c1sc2nccc3c2c1NC(=O)N3c1ccc(Oc2cccnn2)cc1C [Example 305, N-((1R,2S)-2-Acrylamidocyclopentyl)-5-(2-methyl-4-(pyridazin-3-yloxy)phenyl)-4-oxo-4,5-dihydro-3H-1-thia-3,5,8-triazaacenaphthylene-2-carboxamide] | 7.84
C=CC(=O)N[C@@H]1CCC[C@H]1NC(=O)c1sc2nccc3c2c1NC(=O)N3c1ncc(Oc2ccccc2)cn1 [Example 307, N-((1R,2R)-2-Acrylamidocyclopentyl)-4-oxo-5-(5-phenoxypyrimidin-2-yl)-4,5-dihydro-3H-1-thia-3,5,8-triazaacenaphthylene-2-carboxamide] | 7.58
C=CC(=O)N[C@H]1CCC[C@H]1NC(=O)c1sc2nccc3c2c1NC(=O)N3c1cnc(Oc2ccccc2)nc1 [Example 310, N-((1R,2S)-2-Acrylamidocyclopentyl)-4-oxo-5-(2-phenoxypyrimidin-5-yl)-4,5-dihydro-3H-1-thia-3,5,8-triazaacenaphthylene-2-carboxamide] | 8.04
C=CC(=O)N[C@@H]1CCC[C@H]1NC(=O)c1sc2nccc3c2c1NC(=O)N3c1cnc(Oc2ccccc2)cn1 [Example 311, N-((1R,2R)-2-Acrylamidocyclopentyl)-4-oxo-5-(5-phenoxypyrazin-2-yl)-4,5-dihydro-3H-1-thia-3,5,8-triazaacenaphthylene-2-carboxamide] | 7.57
C=CC(=O)N[C@@H]1CCC[C@H]1NC(=O)c1sc2nccc3c2c1NC(=O)N3c1cnc(Oc2ccccc2)nc1 [Example 314, N-((1R,2R)-2-Acrylamidocyclopentyl)-4-oxo-5-(2-phenoxypyrimidin-5-yl)-4,5-dihydro-3H-1-thia-3,5,8-triazaacenaphthylene-2-carboxamide] | 7.14
C=CC(=O)N[C@H]1CCC[C@H]1NC(=O)c1sc2nccc3c2c1NC(=O)N3c1ccnc(-c2cccnc2)c1 [Example 317, 5-([2,3′-Bipyridin]-4-yl)-N-((1R,2S)-2-acrylamidocyclopentyl)-4-oxo-4,5-dihydro-3H-1-thia-3,5,8-triazaacenaphthylene-2-carboxamide] | 7.74
C=CC(=O)N[C@@H]1CC[C@H](NC(=O)c2sc3nccc4c3c2NC(=O)N4c2cnc(Oc3ccccc3)nc2)C1 [Example 319, N-((1S,3R)-3-Acrylamidocyclopentyl)-4-oxo-5-(2-phenoxypyrimidin-5-yl)-4,5-dihydro-3H-1-thia-3,5,8-triazaacenaphthylene-2-carboxamide] | 7.21

Same assay, conditions: read-out: BTK_I_binding pIC50 (converted)

Structure (SMILES) | IC50
CC(C)c1cc(N2C(=O)Nc3c(C(=O)N[C@@H]4CCC[C@@H]4N)sc4nccc2c34)ccn1 [Example 270, N-((1R,2S)-2-Aminocyclopentyl)-5-(2-isopropylpyridin-4-yl)-4-oxo-4,5-dihydro-3H-1-thia-3,5,8-triazaacenaphthylene-2-carboxamide] | > 1000 nM
CC(C)Oc1ccc(N2C(=O)Nc3c(C(=O)N[C@@H]4CCC[C@@H]4N)sc4nccc2c34)cc1 [Example 271, N-((1R,2S)-2-Aminocyclopentyl)-5-(4-isopropoxyphenyl)-4-oxo-4,5-dihydro-3H-1-thia-3,5,8-triazaacenaphthylene-2-carboxamide] | > 1000 nM
N[C@@H]1CCCC[C@H]1NC(=O)c1sc2nccc3c2c1NC(=O)N3c1ccc(Oc2ccccc2)nc1 [Example 277, N-((1R,2R)-2-Aminocyclohexyl)-4-oxo-5-(6-phenoxypyridin-3-yl)-4,5-dihydro-3H-1-thia-3,5,8-triazaacenaphthylene-2-carboxamide] | > 1000 nM
N[C@H]1CCC[C@H]1NC(=O)c1sc2nccc3c2c1NC(=O)N3c1cnnc(-c2ccccc2)c1 [Example 278, N-((1R,2S)-2-Aminocyclopentyl)-4-oxo-5-(6-phenylpyridazin-4-yl)-4,5-dihydro-3H-1-thia-3,5,8-triazaacenaphthylene-2-carboxamide] | > 1000 nM
C=CC(=O)N[C@H]1CCC[C@H](NC(=O)c2sc3nccc4c3c2NC(=O)N4c2ccnc(-c3ccccc3)c2)C1 [Example 279, N-((1S,3S)-3-Acrylamidocyclohexyl)-4-oxo-5-(2-phenylpyridin-4-yl)-4,5-dihydro-3H-1-thia-3,5,8-triazaacenaphthylene-2-carboxamide] | > 1000 nM
CC(=O)N[C@H]1CCC[C@H]1NC(=O)c1sc2nccc3c2c1NC(=O)N3c1ccnc(-c2ccccc2)c1 [Example 280, N-((1R,2S)-2-Acetamidocyclopentyl)-4-oxo-5-(2-phenylpyridin-4-yl)-4,5-dihydro-3H-1-thia-3,5,8-triazaacenaphthylene-2-carboxamide] | > 1000 nM
N[C@H]1CCC[C@H]1NC(=O)c1sc2nccc3c2c1NC(=O)N3c1cc(-c2ccccc2)ncn1 [Example 281, N-((1R,2S)-2-Aminocyclopentyl)-4-oxo-5-(6-phenylpyrimidin-4-yl)-4,5-dihydro-3H-1-thia-3,5,8-triazaacenaphthylene-2-carboxamide] | > 1000 nM
C=CC(=O)N[C@H]1CC[C@H](NC(=O)c2sc3nccc4c3c2NC(=O)N4c2ccnc(-c3ccccc3)c2)C1 [Example 282, N-((1S,3S)-3-Acrylamidocyclopentyl)-4-oxo-5-(2-phenylpyridin-4-yl)-4,5-dihydro-3H-1-thia-3,5,8-triazaacenaphthylene-2-carboxamide] | > 1000 nM
C=CC(=O)N[C@H]1CCC[C@@H](NC(=O)c2sc3nccc4c3c2NC(=O)N4c2ccnc(-c3ccccc3)c2)C1 [Example 283, N-((1R,3S)-3-Acrylamidocyclohexyl)-4-oxo-5-(2-phenylpyridin-4-yl)-4,5-dihydro-3H-1-thia-3,5,8-triazaacenaphthylene-2-carboxamide] | > 1000 nM
N[C@H]1CCC[C@H]1NC(=O)c1sc2nccc3c2c1NC(=O)N3c1cncc(-c2ccccc2)c1 [Example 284, N-((1R,2S)-2-Aminocyclopentyl)-4-oxo-5-(5-phenylpyridin-3-yl)-4,5-dihydro-3H-1-thia-3,5,8-triazaacenaphthylene-2-carboxamide] | > 1000 nM
N[C@H]1CCC[C@H]1NC(=O)c1sc2nccc3c2c1NC(=O)N3c1cccc(-c2ccccn2)c1 [Example 285, N-((1R,2S)-2-Aminocyclopentyl)-4-oxo-5-(3-(pyridin-2-yl)phenyl)-4,5-dihydro-3H-1-thia-3,5,8-triazaacenaphthylene-2-carboxamide] | > 1000 nM
CNCC(=O)N[C@@H]1CCC[C@@H]1NC(=O)c1sc2nccc3c2c1NC(=O)N3c1ccnc(-c2ccccc2)c1 [Example 286, N-((1S,2R)-2-(2-(Methylamino)acetamido)cyclopentyl)-4-oxo-5-(2-phenylpyridin-4-yl)-4,5-dihydro-3H-1-thia-3,5,8-triazaacenaphthylene-2-carboxamide] | > 1000 nM
Cc1cc(OC2CCOCC2)ccc1N1C(=O)Nc2c(C(=O)N[C@@H]3CCC[C@@H]3N)sc3nccc1c23 [Example 287, N-((1R,2S)-2-Aminocyclopentyl)-5-(2-methyl-4-((tetrahydro-2H-pyran-4-yl)oxy)phenyl)-4-oxo-4,5-dihydro-3H-1-thia-3,5,8-triazaacenaphthylene-2-carboxamide] | > 1000 nM
N[C@H]1CCC[C@H]1NC(=O)c1sc2nccc3c2c1NC(=O)N3c1ccc(OC2CCOCC2)cc1 [Example 288, N-((1R,2S)-2-Aminocyclopentyl)-4-oxo-5-(4-((tetrahydro-2H-pyran-4-yl)oxy)phenyl)-4,5-dihydro-3H-1-thia-3,5,8-triazaacenaphthylene-2-carboxamide] | > 1000 nM
